Measured values published in patent EP1641803B1, “THIENOPYRIMIDINE DERIVATIVES AS POTASSIUM CHANNEL INHIBITORS” (Xention Limited, priority 2003, dated 2004).

How the values were obtained:
[1] = biological target: hKv1.5 (Homo sapiens, UniProt P22460); experiment: Kv1.5 Autopatch Electrophysiology (whole cell patch-clamp); format: cell-based; conditions: compound at 1µM, room temperature (22-24°C), held at -80mV, step to 0mV for 1000ms, total charge measured
Procedure, shortened: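 Whole-cell automated patch-clamp at 22-24°C, compounds tested at 1µM in external bather (KCl/K-gluconate, pH 7.4; KCl/EGTA pipette). Cells held at -80mV and stepped to 0mV for 1000ms every 5s; only cells with IK > 500 pA and Rseries ≤18 MΩ used. Read-out: total charge over the whole step.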

[2] = biological target: T1, human Kv1.5 (Homo sapiens, UniProt P22460); experiment: Kv1.5 Rb+ Efflux Assay; format: cell-based; conditions: inhibition of 86Rb+ efflux through Kv1.5; cells stably transfected with human Kv1.5; 10 point concentration response curves n=2; normalised to 2.5mM 4 amino-pyridine block
T1 construct: expressed in transfected cells
T1 sequence (P22460 whole entry): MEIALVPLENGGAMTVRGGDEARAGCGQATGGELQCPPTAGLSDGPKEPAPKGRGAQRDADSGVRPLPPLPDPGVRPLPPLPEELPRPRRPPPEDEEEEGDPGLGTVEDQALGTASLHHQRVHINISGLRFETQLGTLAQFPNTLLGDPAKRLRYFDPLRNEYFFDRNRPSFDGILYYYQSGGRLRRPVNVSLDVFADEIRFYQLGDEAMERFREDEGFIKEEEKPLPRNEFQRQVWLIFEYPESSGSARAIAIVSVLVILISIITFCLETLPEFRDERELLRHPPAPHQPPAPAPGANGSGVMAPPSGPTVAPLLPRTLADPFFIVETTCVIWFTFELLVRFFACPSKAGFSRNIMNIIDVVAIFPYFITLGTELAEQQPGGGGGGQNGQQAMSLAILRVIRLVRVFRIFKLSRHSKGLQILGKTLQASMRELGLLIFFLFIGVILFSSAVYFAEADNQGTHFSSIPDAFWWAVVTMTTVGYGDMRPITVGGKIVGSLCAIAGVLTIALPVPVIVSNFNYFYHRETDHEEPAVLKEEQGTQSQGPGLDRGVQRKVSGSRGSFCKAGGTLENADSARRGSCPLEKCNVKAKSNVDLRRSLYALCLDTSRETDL
Procedure, shortened: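 Cells stably expressing human Kv1.5 loaded with ⁸⁶Rb⁺ ≥3 h, preincubated 10 min at room temperature with compound, then depolarised with high-KCl (145mM) buffer for 10 min; effluxed ⁸⁶Rb⁺ counted by Cerenkov emission (alternatively ⁸⁵Rb⁺ by atomic absorption). Inhibition normalised to 2.5mM 4-aminopyridine block; IC50 from 10-point curves, n=2, variable-slope sigmoidal fit.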

Sequence of hKv1.5 (P22460 whole entry): as above

Structure (SMILES) | inhibition at 1 µM [1] | IC50 [2]
Clc1cccc(-c2csc3ncnc(NCc4ccccn4)c23)c1 [Example 321, [5-(3-Chlorophenyl)-thieno[2,3-d]pyrimidin-4-yl]-pyridin-2-ylmethyl-amine] | 95% | 1520 nM
COc1cccc(-c2csc3ncnc(NCc4ccccn4)c23)c1 [Example 322, [5-(3-Methoxyphenyl)-thieno[2,3-d]pyrimidin-4-yl]-pyridin-2-ylmethyl-amine] | 94% | 260 nM
c1ccc(CNc2ncnc3scc(-c4ccc5cc[nH]c5c4)c23)nc1 [Example 323, [5-(1H-Indol-6-yl)-thieno[2,3-d]pyrimidin-4-yl]-pyridin-2-ylmethyl-amine] | 94% | 40 nM
Clc1ccc(-c2csc3ncnc(NCc4ccccn4)c23)cc1 [Example 325, [5-(4-Chlorophenyl)-thieno[2,3-d]pyrimidin-4-yl]-pyridin-2-ylmethyl-amine] | 90.8% | 2540 nM
FC1(F)Oc2ccc(-c3csc4ncnc(NCc5ccccn5)c34)cc2O1 [Example 326, [5-(2,2-Difluoro-benzo[1,3]dioxol-5-yl)-thieno[2,3-d]pyrimidin-4-yl]-pyridin-2-ylmethyl-amine] | 89% | 10400 nM
Fc1cccc(-c2csc3ncnc(NCc4ccccn4)c23)c1 [Example 331, [5-(3-Fluorophenyl)-thieno[2,3-d]pyrimidin-4-yl]-pyridin-2-ylmethyl-amine] | 76% | 30 nM
c1ccc(CNc2ncnc3scc(-c4ccc(N5CCOCC5)cc4)c23)nc1 [Example 332, [5-(4-Morpholin-4-yl-phenyl)-thieno[2,3-d]pyrimidin-4-yl]-pyridin-2-ylmethyl-amine] | 73% | 47400 nM
Fc1ccc(-c2csc3ncnc(NCc4ccccn4)c23)cc1F [Example 333, [5-(3,4-Difluoro-phenyl)-thieno[2,3-d]pyrimidin-4-yl]-pyridin-2-ylmethyl-amine] | 63% | 10400 nM
